Source: the CheMixHub viscosity set
± gives the uncertainty stated by the source.

Experiment: xn = mol fraction of the nth substance listed

c1ccc2c(c1)CCCC2 + CCCCCCCCCC
viscosity [mPa·s]
Conditions | 293.15 K | 298.15 K | 303.15 K | 308.15 K | 313.15 K | 318.15 K | 323.15 K
100 kPa, x1 = 0.0986 | 0.954 ± 0.02 | 0.886 ± 0.019 | 0.827 ± 0.018 | 0.774 ± 0.016 | 0.727 ± 0.015 | 0.685 ± 0.015 | 0.647 ± 0.014
100 kPa, x1 = 0.2025 | 1.008 ± 0.021 | 0.936 ± 0.02 | 0.871 ± 0.019 | 0.814 ± 0.017 | 0.763 ± 0.016 | 0.718 ± 0.015 | 0.678 ± 0.014
100 kPa, x1 = 0.2995 | 1.065 ± 0.023 | 0.987 ± 0.021 | 0.919 ± 0.02 | 0.859 ± 0.018 | 0.805 ± 0.017 | 0.757 ± 0.016 | 0.713 ± 0.015
100 kPa, x1 = 0.3994 | 1.133 ± 0.024 | 1.043 ± 0.022 | 0.973 ± 0.021 | 0.908 ± 0.019 | 0.85 ± 0.018 | 0.798 ± 0.017 | 0.752 ± 0.016
100 kPa, x1 = 0.5005 | 1.221 ± 0.026 | 1.127 ± 0.024 | 1.045 ± 0.022 | 0.973 ± 0.021 | 0.909 ± 0.019 | 0.852 ± 0.018 | 0.802 ± 0.017
100 kPa, x1 = 0.5989 | 1.329 ± 0.028 | 1.224 ± 0.026 | 1.132 ± 0.024 | 1.047 ± 0.022 | 0.977 ± 0.021 | 0.916 ± 0.019 | 0.859 ± 0.018
100 kPa, x1 = 0.6999 | 1.468 ± 0.031 | 1.347 ± 0.029 | 1.243 ± 0.026 | 1.151 ± 0.024 | 1.07 ± 0.023 | 0.999 ± 0.021 | 0.936 ± 0.02
100 kPa, x1 = 0.7987 | 1.644 ± 0.035 | 1.495 ± 0.032 | 1.382 ± 0.029 | 1.276 ± 0.027 | 1.182 ± 0.025 | 1.101 ± 0.023 | 1.028 ± 0.022
100 kPa, x1 = 0.9002 | 1.878 ± 0.04 | 1.708 ± 0.036 | 1.564 ± 0.033 | 1.437 ± 0.031 | 1.326 ± 0.028 | 1.23 ± 0.026 | 1.147 ± 0.024
101 kPa, x2 = 0.1001 | 1.873 ± 0.014 | 1.703 ± 0.013 | 1.56 ± 0.012 | – | 1.328 ± 0.01 | – | –
101 kPa, x2 = 0.2044 | 1.629 ± 0.012 | 1.486 ± 0.011 | 1.368 ± 0.011 | – | 1.175 ± 0.01 | – | –
101 kPa, x2 = 0.2961 | 1.471 ± 0.011 | 1.349 ± 0.011 | 1.245 ± 0.01 | – | 1.073 ± 0.009 | – | –
101 kPa, x2 = 0.3964 | 1.345 ± 0.011 | 1.238 ± 0.01 | 1.148 ± 0.009 | – | 0.995 ± 0.009 | – | –
101 kPa, x2 = 0.4994 | 1.226 ± 0.01 | 1.134 ± 0.009 | 1.053 ± 0.009 | – | 0.917 ± 0.008 | – | –
101 kPa, x2 = 0.6017 | 1.143 ± 0.009 | 1.06 ± 0.009 | 0.986 ± 0.009 | – | 0.862 ± 0.008 | – | –
101 kPa, x2 = 0.6964 | 1.071 ± 0.009 | 0.993 ± 0.009 | 0.925 ± 0.008 | – | 0.809 ± 0.008 | – | –
101 kPa, x2 = 0.7971 | 1.015 ± 0.009 | 0.942 ± 0.008 | 0.878 ± 0.008 | – | 0.77 ± 0.008 | – | –
101 kPa, x2 = 0.8894 | 0.968 ± 0.008 | 0.9 ± 0.008 | 0.838 ± 0.008 | – | 0.737 ± 0.007 | – | –
